{
  "source": "patent US12544378B2",
  "about": "“Solid pharmaceutical formulation of PARP inhibitors and use thereof” (IMPACT THERAPEUTICS (SHANGHAI), INC, priority 2015, dated 2026)",
  "key": {"[1]": {"experiment": "Effects of vehicle formulas on drug absorption, mouse pharmacokinetics (PK) method (Example 8)", "type": "in vivo", "conditions": "ICR mice, gavage, solution in DMSO:10% HP-β-CD PBS=1:9", "description": "Measurement of the Effects of 5-fluoro-1-(4-fluoro-3-(4-(pyrimidin-2-yl)piperazine-1-carbonyl)benzyl)quinazoline-2,4(1H,3H)-dione Vehicle Formulas on the Drug Absorption Using a Mouse Pharmacokinetics (PK) Method\n5-Fluoro-1-(4-fluoro-3-(4-(pyrimidin-2-yl)piperazine-1-carbonyl)benzyl)quinazoline-2,4(1H,3H)-dione in different vehicle formulas at the same dosage was administered to ICR mice by gavage. The blood was sampled at 30 min after gavage, the blood concentrations were measured by LCMS method, and the effects on the drug absorption of different vehicle formulas was made a comparison. The blood concentrations were shown as the table below: […]"}, "[2]": {"experiment": "Absorption of amorphous solid dispersion HP-55 (1:3), mouse pharmacokinetics (PK) method (Example 11)", "type": "in vivo", "conditions": "whole blood, mice, IV, 1 mg/kg, solution in DMSO:10% HP-β-CD PBS (1:9)", "description": "Measurement of the Absorption Ratio of the Amorphous Solid Dispersions of 5-fluoro-1-(4-fluoro-3-(4-(pyrimidin-2-yl)piperazine-1-carbonyl)benzyl)quinazoline-2,4(1H,3H)-dione:HP-55 (1:3) Using a Mouse Pharmacokinetics (PK) Method\n(§1) The solution of 5-fluoro-1-(4-fluoro-3-(4-(pyrimidin-2-yl)piperazine-1-carbonyl)benzyl)quinazoline-2,4(1H,3H)-dione in DMSO:10% HP-β-CD PBS (1:9) was administered to mice at 1 mg/kg by IV. And the homogeneous suspension of the amorphous solid dispersion of 5-fluoro-1-(4-fluoro-3-(4-(pyrimidin-2-yl)piperazine-1-carbonyl)benzyl)quinazoline-2,4(1H,3H)-dione:HP-55 (1:3) in 0.5% MC/water was administered to mice at 10 mg/kg by IG. The blood was sampled at a certain time after administration. The blood concentrations were measured by LCMS method, and the oral absorption was measured by a mouse pharmacokinetics (PK) method."}, "[3]": {"experiment": "Absorption of amorphous solid dispersion HP-55 (1:3), rat pharmacokinetics (PK) method (Example 12)", "type": "in vivo", "conditions": "whole blood, Wistar rats, IV, 1 mg/kg, solution in DMSO:10% HP-β-CD PBS (1:9)", "description": "Measurement of the Absorption Ratio of the Amorphous Solid Dispersions of 5-fluoro-1-(4-fluoro-3-(4-(pyrimidin-2-yl)piperazine-1-carbonyl)benzyl)quinazoline-2,4(1H,3H)-dione:HP-55 (1:3) Using a Rat Pharmacokinetics (PK) Method\nas §1, with “Wistar rats” for “mice”, “rat” for “mouse”"}, "[4]": {"experiment": "Bioavailability after oral administration of the crystalline compound", "conditions": "mouse, in vivo, mice, simple mixture of crystalline compound with surfactants (Tween 80) and emulsifiers (methylcellulose)"}, "Water solubility": {"experiment": "Water solubility", "type": "physicochemical"}},
  "data": [
    {"smiles": "O=C(c1cc(Cn2c(=O)[nH]c(=O)c3c(F)cccc32)ccc1F)N1CCN(c2ncccn2)CC1", "note": "[5-fluoro-1-(4-fluoro-3-(4-(pyrimidin-2-yl)piperazine-1-carbonyl)benzyl)quinazoline-2,4(1H,3H)-dione]", "values": [
      {"measurement": "oral absorption rate", "setting": "[1]", "value": 48, "unit": "%"},
      {"measurement": "AUC(0-inf)", "setting": "[2]", "value": 997, "unit": "ng·h/mL"},
      {"measurement": "AUC(0-t)", "setting": "[2]", "value": 991, "unit": "ng·h/mL"},
      {"measurement": "Cmax", "setting": "[2]", "value": 1920, "unit": "ng/mL"},
      {"measurement": "half-life", "setting": "[2]", "value": 32.7, "unit": "min"},
      {"measurement": "AUC(0-inf)", "setting": "[3]; female", "value": 1290, "unit": "ng·h/mL"},
      {"measurement": "AUC(0-t)", "setting": "[3]; female", "value": 1250, "unit": "ng·h/mL"},
      {"measurement": "Cmax", "setting": "[3]; female", "value": 618, "unit": "ng/mL"},
      {"measurement": "half-life", "setting": "[3]; female", "value": 304, "unit": "min"},
      {"measurement": "AUC(0-inf)", "setting": "[3]; male", "value": 365, "unit": "ng·h/mL"},
      {"measurement": "AUC(0-t)", "setting": "[3]; male", "value": 363, "unit": "ng·h/mL"},
      {"measurement": "Cmax", "setting": "[3]; male", "value": 896, "unit": "ng/mL"},
      {"measurement": "half-life", "setting": "[3]; male", "value": 51, "unit": "min"},
      {"measurement": "bioavailability", "setting": "[4]", "value": "< 5", "unit": "%"},
      {"measurement": "water solubility (in words)", "setting": "Water solubility", "value": "very low"}
    ]}
  ]
}
